Source: PubChem BioAssay (NCI)
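Values below derive from 48-hour exposures of cells grown in 96-well plates, with endpoints linearly interpolated between the two concentrations bracketing the appropriate inhibition level. TGI: total growth inhibition.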

Legend:
Experiment in all cases: inhibition of tumour cell growth, NCI panel, 48 h
NCI/ADR-RES ovarian = test system: NCI/ADR-RES ovarian
SNB-19 CNS = test system: SNB-19 CNS
BT-549 breast = test system: BT-549 breast
UACC-62 melanoma = test system: UACC-62 melanoma
CCRF-CEM leukemia = test system: CCRF-CEM leukemia
RXF 393 renal = test system: RXF 393 renal
SNB-75 CNS = test system: SNB-75 CNS
SF-268 CNS = test system: SF-268 CNS
786-0 renal = test system: 786-0 renal
NCI-H23 lung = test system: NCI-H23 lung
OVCAR-5 ovarian = test system: OVCAR-5 ovarian

Cc1cn(C2CC(O)C(Cn3nncc3Cn3cnc4c(N)ncnc43)O2)c(=O)[nH]c1=O (stereo not drawn)
TGI (NCI/ADR-RES ovarian): > 100 µM
TGI (SNB-19 CNS): > 100 µM
TGI (BT-549 breast): > 100 µM
TGI (UACC-62 melanoma): > 100 µM
TGI (CCRF-CEM leukemia): > 100 µM
TGI (RXF 393 renal): > 100 µM
TGI (SNB-75 CNS): > 100 µM
TGI (SF-268 CNS): > 100 µM
TGI (786-0 renal): > 100 µM
TGI (NCI-H23 lung): > 100 µM
TGI (OVCAR-5 ovarian): > 100 µM

O=[N+]([O-])C(C(Cl)=C(Cl)Cl)=C(N1CCCCC1)N1CCCCC1
TGI (NCI/ADR-RES ovarian): > 100 µM
TGI (SNB-19 CNS): > 100 µM
TGI (BT-549 breast): > 100 µM
TGI (UACC-62 melanoma): > 100 µM
TGI (CCRF-CEM leukemia): > 100 µM
TGI (RXF 393 renal): > 100 µM
TGI (SNB-75 CNS): > 100 µM
TGI (SF-268 CNS): > 100 µM
TGI (786-0 renal): > 100 µM
TGI (NCI-H23 lung): > 100 µM
TGI (OVCAR-5 ovarian): > 100 µM

COc1cc2c(cc1NC(=O)c1ccccc1)c1c(n2S(=O)(=O)c2ccccc2)CCN(S(=O)(=O)c2ccccc2)C1
TGI (NCI/ADR-RES ovarian): > 100 µM
TGI (SNB-19 CNS): > 100 µM
TGI (BT-549 breast): > 100 µM
TGI (UACC-62 melanoma): > 100 µM
TGI (CCRF-CEM leukemia): > 100 µM
TGI (RXF 393 renal): > 100 µM
TGI (SNB-75 CNS): > 100 µM
TGI (SF-268 CNS): > 100 µM
TGI (786-0 renal): > 100 µM
TGI (NCI-H23 lung): > 100 µM
TGI (OVCAR-5 ovarian): > 100 µM

Cn1c2ncccc2n2c(=O)cc(O)cc12
TGI (NCI/ADR-RES ovarian): > 100 µM
TGI (SNB-19 CNS): > 100 µM
TGI (BT-549 breast): > 100 µM
TGI (UACC-62 melanoma): > 100 µM
TGI (CCRF-CEM leukemia): > 100 µM
TGI (RXF 393 renal): 75.5 µM
TGI (SNB-75 CNS): > 100 µM
TGI (SF-268 CNS): > 100 µM
TGI (786-0 renal): > 100 µM
TGI (NCI-H23 lung): > 100 µM
TGI (OVCAR-5 ovarian): > 100 µM

O=C1CC(n2ccnc2)c2c(Cl)sc(Cl)c21 (stereo not drawn)
TGI (NCI/ADR-RES ovarian): 71.5 µM
TGI (SNB-19 CNS): 38.3 µM
TGI (BT-549 breast): 32.8 µM
TGI (UACC-62 melanoma): 32 µM
TGI (CCRF-CEM leukemia): > 22.6 µM
TGI (RXF 393 renal): 33.9 µM
TGI (SNB-75 CNS): 52 µM
TGI (SF-268 CNS): 59.3 µM
TGI (786-0 renal): > 37.9 µM
TGI (NCI-H23 lung): 30.9 µM
TGI (OVCAR-5 ovarian): 48.1 µM

COC(=O)c1cc(/C=C/C(=O)Cc2ccccc2)cn1S(=O)(=O)c1ccccc1
TGI (NCI/ADR-RES ovarian): > 100 µM
TGI (SNB-19 CNS): > 100 µM
TGI (BT-549 breast): > 100 µM
TGI (UACC-62 melanoma): > 100 µM
TGI (CCRF-CEM leukemia): > 100 µM
TGI (RXF 393 renal): > 100 µM
TGI (SNB-75 CNS): > 100 µM
TGI (SF-268 CNS): > 100 µM
TGI (786-0 renal): > 100 µM
TGI (NCI-H23 lung): > 100 µM
TGI (OVCAR-5 ovarian): > 100 µM

CC1(C)CC(=O)c2c(-c3ccc(Cl)cc3)c(C#N)c(=S)n(C3OC(CO)C(O)C(O)C3O)c2C1 (stereo not drawn)
TGI (NCI/ADR-RES ovarian): > 100 µM
TGI (SNB-19 CNS): > 100 µM
TGI (BT-549 breast): > 100 µM
TGI (UACC-62 melanoma): 41.6 µM
TGI (CCRF-CEM leukemia): > 100 µM
TGI (RXF 393 renal): > 100 µM
TGI (SNB-75 CNS): 98.4 µM
TGI (SF-268 CNS): > 100 µM
TGI (786-0 renal): > 100 µM
TGI (NCI-H23 lung): > 100 µM
TGI (OVCAR-5 ovarian): > 100 µM

NC(=O)C1=C(O)[C@@]2(O)C(=O)C3=C(O)c4c(O)cccc4CC3C[C@H]2CC1=O (stereo partly drawn)
TGI (NCI/ADR-RES ovarian): 13.7 µM
TGI (SNB-19 CNS): 10.9 µM
TGI (BT-549 breast): 9.46 µM
TGI (UACC-62 melanoma): 8.61 µM
TGI (CCRF-CEM leukemia): 10.4 µM
TGI (RXF 393 renal): 9.58 µM
TGI (SNB-75 CNS): 8.35 µM
TGI (SF-268 CNS): 17.8 µM
TGI (786-0 renal): 17.6 µM
TGI (NCI-H23 lung): 8.89 µM
TGI (OVCAR-5 ovarian): 12.3 µM

O=c1ccn(C/C=C/c2ccccc2)c(=S)n1C/C=C/c1ccccc1
TGI (NCI/ADR-RES ovarian): > 100 µM
TGI (SNB-19 CNS): > 100 µM
TGI (BT-549 breast): > 100 µM
TGI (UACC-62 melanoma): > 100 µM
TGI (CCRF-CEM leukemia): 62.9 µM
TGI (RXF 393 renal): 85.6 µM
TGI (SNB-75 CNS): > 100 µM
TGI (SF-268 CNS): > 100 µM
TGI (786-0 renal): > 100 µM
TGI (NCI-H23 lung): > 100 µM
TGI (OVCAR-5 ovarian): > 100 µM

O=C(c1ccccc1)c1ccc(N2C(=O)/C(=C/c3cccc(Oc4ccccc4)c3)N=C2c2ccccc2)c(N2C(=O)/C(=C/c3cccc(Oc4ccccc4)c3)N=C2c2ccccc2)c1
TGI (NCI/ADR-RES ovarian): 69.1 µM
TGI (SNB-19 CNS): > 100 µM
TGI (BT-549 breast): > 100 µM
TGI (UACC-62 melanoma): 24.5 µM
TGI (CCRF-CEM leukemia): > 100 µM
TGI (RXF 393 renal): > 100 µM
TGI (SNB-75 CNS): > 100 µM
TGI (SF-268 CNS): > 100 µM
TGI (786-0 renal): > 100 µM
TGI (NCI-H23 lung): > 100 µM
TGI (OVCAR-5 ovarian): > 100 µM

COc1ccc2nc3ccc(OC)cc3c(S(=O)Cc3ccccc3)c2c1 (stereo not drawn)
TGI (NCI/ADR-RES ovarian): 46.7 µM
TGI (SNB-19 CNS): 41.5 µM
TGI (BT-549 breast): 27.4 µM
TGI (UACC-62 melanoma): 28.5 µM
TGI (CCRF-CEM leukemia): > 22.1 µM
TGI (RXF 393 renal): > 43.5 µM
TGI (SNB-75 CNS): 28.8 µM
TGI (SF-268 CNS): 40.2 µM
TGI (786-0 renal): 4.78 µM
TGI (NCI-H23 lung): 37.5 µM
TGI (OVCAR-5 ovarian): 35.3 µM

O=C(Nc1ccccc1)OCCN=c1c2ccccc2ccc2ccccc12
TGI (NCI/ADR-RES ovarian): 65.9 µM
TGI (SNB-19 CNS): 62.7 µM
TGI (BT-549 breast): 34.1 µM
TGI (UACC-62 melanoma): 49.1 µM
TGI (CCRF-CEM leukemia): 50.4 µM
TGI (RXF 393 renal): 75.9 µM
TGI (SNB-75 CNS): 80.9 µM
TGI (SF-268 CNS): > 100 µM
TGI (786-0 renal): > 100 µM
TGI (NCI-H23 lung): > 100 µM
TGI (OVCAR-5 ovarian): > 100 µM

CC/C(Cl)=N\OC(=O)Nc1ccc(F)c(Cl)c1
TGI (NCI/ADR-RES ovarian): 42.7 µM
TGI (SNB-19 CNS): 20.7 µM
TGI (BT-549 breast): 51.3 µM
TGI (UACC-62 melanoma): 46.3 µM
TGI (CCRF-CEM leukemia): 4.91 µM
TGI (RXF 393 renal): 34.5 µM
TGI (SNB-75 CNS): 26.2 µM
TGI (SF-268 CNS): 43.4 µM
TGI (786-0 renal): 18 µM
TGI (NCI-H23 lung): 45.7 µM
TGI (OVCAR-5 ovarian): 31.4 µM

CCOC(=O)c1c2ccccc2n2c(=O)n(-c3ccc(OC)cc3)nnc12
TGI (NCI/ADR-RES ovarian): > 100 µM
TGI (SNB-19 CNS): > 79.9 µM
TGI (BT-549 breast): > 80.7 µM
TGI (UACC-62 melanoma): 99.6 µM
TGI (CCRF-CEM leukemia): > 62.4 µM
TGI (RXF 393 renal): 43.5 µM
TGI (SNB-75 CNS): 35.9 µM
TGI (SF-268 CNS): 45.7 µM
TGI (786-0 renal): 51.1 µM
TGI (NCI-H23 lung): > 81.5 µM
TGI (OVCAR-5 ovarian): > 100 µM

COc1ccc(/C=C2/SC(=Nc3ccccc3)N(NC(=O)Cc3ccccc3)C2=O)cc1
TGI (NCI/ADR-RES ovarian): > 100 µM
TGI (SNB-19 CNS): > 100 µM
TGI (BT-549 breast): > 100 µM
TGI (UACC-62 melanoma): > 100 µM
TGI (CCRF-CEM leukemia): > 100 µM
TGI (RXF 393 renal): > 100 µM
TGI (SNB-75 CNS): > 100 µM
TGI (SF-268 CNS): > 100 µM
TGI (786-0 renal): > 100 µM
TGI (NCI-H23 lung): > 100 µM
TGI (OVCAR-5 ovarian): > 100 µM

CCOC(=O)N1c2ccccc2N(C(=O)OCC)C1CC(=O)/C=C/c1ccccc1
TGI (NCI/ADR-RES ovarian): 9.77 µM
TGI (SNB-19 CNS): 16.8 µM
TGI (BT-549 breast): 9.84 µM
TGI (UACC-62 melanoma): 10.2 µM
TGI (CCRF-CEM leukemia): 4.61 µM
TGI (RXF 393 renal): 13.8 µM
TGI (SNB-75 CNS): 9.92 µM
TGI (SF-268 CNS): 9.82 µM
TGI (786-0 renal): 10.6 µM
TGI (NCI-H23 lung): 8.7 µM
TGI (OVCAR-5 ovarian): 7.78 µM

Cc1n[nH]c(=O)n1/N=C/c1ccco1
TGI (NCI/ADR-RES ovarian): > 100 µM
TGI (SNB-19 CNS): > 100 µM
TGI (BT-549 breast): > 100 µM
TGI (UACC-62 melanoma): > 100 µM
TGI (CCRF-CEM leukemia): > 100 µM
TGI (RXF 393 renal): > 100 µM
TGI (SNB-75 CNS): > 100 µM
TGI (SF-268 CNS): > 100 µM
TGI (786-0 renal): > 100 µM
TGI (NCI-H23 lung): > 100 µM
TGI (OVCAR-5 ovarian): > 100 µM

Cc1cc(-c2nc3cc(F)ccc3s2)ccc1N
TGI (NCI/ADR-RES ovarian): > 100 µM
TGI (SNB-19 CNS): > 88.5 µM
TGI (BT-549 breast): > 100 µM
TGI (UACC-62 melanoma): > 100 µM
TGI (CCRF-CEM leukemia): > 100 µM
TGI (RXF 393 renal): 52.4 µM
TGI (SNB-75 CNS): > 79.1 µM
TGI (SF-268 CNS): > 90.5 µM
TGI (786-0 renal): > 79.4 µM
TGI (NCI-H23 lung): > 84.2 µM
TGI (OVCAR-5 ovarian): > 100 µM
